Measurements from patent US20170226518A1, “COMPOSITIONS AND METHODS FOR TREATING CANCER” (Autotelic LLC, priority 2016, published 2017).
In the oligonucleotide strings, read from the 5' end, every base follows the letter of its sugar. An asterisk marks phosphorothioate; unmarked linkages are phosphodiester. Other units and linkages are bracketed, terminal groups are in braces. A string of capitals states the bases alone. d = 2'-deoxy (DNA)

What was measured:
[1] = Acute single dose toxicity in rats; format: in vivo
Description: (§1) The clinical starting dose for the 7-days-on and 7-days-off schedule was based on the Lowest-Observed-Adverse-Effect-Level (LOAEL) devoid of severe toxicity in Cynomolgus monkeys as the most relevant species. This LOAEL of 4 mg/kg body weight (b.w.)/day is equivalent to approximately 1.3 mg/kg b.w./day or 48 mg/m^2/day on a body surface area basis in human adults. These numbers were rounded down and the safe starting dose was defined at 40 mg/m^2/day, equivalent to approximately 1 mg/kg b.w./day in humans. An alternative approach would have been based on the lowest lethal dose (LLD) of 300 mg/kg b.w. obtained in the acute single dose toxicity study in mice (in rats it was determined at 1000 mg/kg), at which 1 of 10 mice died (LLD10). According to the standard method, 10% of this dose (30 mg/kg) on a body surface area basis would then be defined as the clinical starting dose resulting in 90 mg/m^2/day. In the end, the lower of the two alternatives was chosen as starting dose.

TGFβ2 = TGFβ2 secretion in A-172 glioma cells; format: cell-based; conditions: 7 days, treatment schedule 2*2/1*3 d
Description: A-172 glioma cells were treated with a combination of AP12009 (trabedersen) 0 to 10 μM) and different concentrations of TMZ (temozolomide) for 7 days (treatment schedule 2*2/1*3 d).
In summary there is no clear beneficial effect in combining AP12009 with TMZ in A-172 cells.

WiDr colon cancer cells = assay: Cellular proliferation of WiDr colon cancer cells in vitro; format: cell-based; conditions: 10 μM AP12009
Text: The aim of the study was to determine the effect of AP12009 (trabedersen) treatment in combination with 5-Fluorouracil (5-FU) on TGFβ2 secretion and on cellular proliferation of HUP-T3 pancreatic cancer cells and WiDr colon cancer cells in vitro.

[2] = Preclinical toxicology in Cynomolgus monkeys (LOAEL); format: in vivo
Description: as §1

trabedersen: TGFβ2 specific phosphorothioate antisense oligodeoxynucleotide with the sequence 5′-CGGCATGTCTATTTTGTA-3′ (SEQ ID No: 1) (antisense dC*dG*dG*dC*dA*dT*dG*dT*dC*dT*dA*dT*dT*dT*dT*dG*dT*dA)
lowest lethal dose (LLD) [1]: 1000 mg/kg
effect on TGFβ2 secretion (TGFβ2): strongly reduced TGFβ2
cell proliferation (% of untreated control) (WiDr colon cancer cells): 76%
Lowest-Observed-Adverse-Effect-Level (LOAEL) devoid of severe toxicity [2]: 4 mg/kg body weight (b.w.)/day
